Laboratory results reported in patent publication US8168238B2, “Extracts of Aquilaria hulls and use thereof in the treatment of cancer” (priority 2009, dated 2012).
Converted amounts (≈) assume the structure as drawn.

Key:
[1] = Description: Sephadex LH-20 gel (1.5 cm i.d.×36 cm) was used in the molecular sieve chromatography and methanol was used as the mobile phase.
[2] = tested on: HT29 cells; experiment: MTT cell viability assay in HT29 cells; format: cell-based, human; settings: for concentrations that greatly reduced cell viability in HT29 cells: 24 hours, MTT, Table 9; for IC50: Homo sapiens, HT-29, 24 h, read-out: IC50 on HT29 cells
Experimental: HT cells were treated with the diluted cucrubitacin E and I (100-1.56 μg/ml). After the cells were treated for 24 hours, cell viability was determined by MTT assay, which quantitatively measures the metabolic activity of living cells.
The effects of the extract of Aquilaria agallocha Roxb. hulls on cell toxicity in T24 cells (human bladder carcinoma cells), HT29 cells (human colon adenocarcinoma cells), HeLa cells (cervical carcinoma cells), AGS cells (gastric epithelial cancer cells) and Hep G2 lo cells (human hepatocellular liver carcinoma cells) were tested. The above-mentioned cells were treated with the extract of Aquilaria agallocha Roxb. hulls. The procedures of the cell toxicity test were the same as those mentioned in Example 5.

[3] = Partition coefficient between layers of a two-phase solvent system (HPLC peak area); format: physicochemical; settings: Hexane-EtOAc—MeOH—H2O 12.24.16.9, from peak areas of lower and upper layer
[4] = tested on: P-388 leukemia cells; experiment: MTT assay in P-388 leukemia cells; format: cell-based; settings: for IC50: Mus musculus, P388, P-388 cells; for concentrations that inhibited cell proliferation in P-388 cells: Table 9
Experimental: HT cells were treated with the diluted cucrubitacin E and I (100-1.56 μg/ml). After the cells were treated for 24 hours, cell viability was determined by MTT assay, which quantitatively measures the metabolic activity of living cells. […] Please see Table 9.
In addition to HT29 cells, P-388 leukemia cells were also determined by MTT assay. […] Please see Table 9.

[5] = tested on: HT29 cells; experiment: Cell cycle distribution of HT29 cells by flow cytometry; format: cell-based, human; settings: increasing concentrations, FIG. 5
Description: The cell cycle of treated cells was examined by flow cytometry.

[6] = tested on: HT29 cells; experiment: Cell morphology of HT29 cells, Giemsa staining, optical microscope; format: cell-based, human; settings: different concentrations, 24 hours, 10% Giemsa, FIG. 4

| solubility, in words [1] | SMILES | concentrations that greatly reduced cell viability in HT29 cells [2] | IC50 [2] | partition coefficient [3] | IC50 [4] | concentrations that inhibited cell proliferation in P-388 cells [4] | cell cycle distribution, sub-G1 population [5] | cell morphology of HT29 cells [6] |
| --- | --- | --- | --- | --- | --- | --- | --- | --- |
| hard to dissolve in methanol | O=c1c2cc(O)c(O)cc2oc2cc(O)c([C@@H]3O[C@H](CO)[C@@H](O)[C@H](O)[C@H]3O)c(O)c12 [mangiferin] | – | – | – | – | – | – | – |
| – | CC(C)(O)/C=C/C(=O)[C@](C)(O)C1[C@H](O)C[C@@]2(C)C3CC=C4C(C=C(O)C(=O)C4(C)C)[C@]3(C)C(=O)C[C@]12C (some centres unmarked) [Cucurbitacin I, cucurbitacin I] | > 15.8 µM | 15.8 µg/mL (≈ 30.7 µM) | 0.42 | 7.4 µg/mL (≈ 14.4 µM) | > 7.4 µM | sub-G1 populations increased | the nucleus were squeezed and the chromatin was condensed |
| – | CC(=O)OC(C)(C)/C=C/C(=O)[C@](C)(O)C1[C@H](O)C[C@@]2(C)C3CC=C4C(C=C(O[C@@H]5OC(CO)[C@@H](O)C(O)C5O)C(=O)C4(C)C)[C@]3(C)C(=O)C[C@]12C (some centres unmarked) [cucurbitacin E glucoside] | – | – | 0.05 | – | – | – | – |
| – | CC(=O)OC(C)(C)/C=C/C(=O)[C@](C)(O)C1[C@H](O)C[C@@]2(C)C3CC=C4C(C=C(O)C(=O)C4(C)C)[C@]3(C)C(=O)C[C@]12C (some centres unmarked) [Cucurbitacin E, cucurbitacin E] | above 14.1 μM | 14.1 µg/mL (≈ 25.3 µM) | 0.90 | 6.5 µg/mL (≈ 11.7 µM) | above 6.5 μM | sub-G1 populations increased | the nucleus were squeezed and the chromatin was condensed |
| – | CC(C)(O)/C=C/C(=O)[C@](C)(O)C1[C@H](O)C[C@@]2(C)C3CC=C4C(C=C(O[C@@H]5OC(CO)[C@@H](O)C(O)C5O)C(=O)C4(C)C)[C@]3(C)C(=O)C[C@]12C (some centres unmarked) [cucurbitacin I glucoside] | – | – | 0.03 | – | – | – | – |
